Where two headings read alike, the source gives them in different places.
What was measured:
[1] = tested on: primary human lymphoblasts; assay: Cholesterol Biosynthesis Assay (sterol profiles of cultured cells); format: cell-based; conditions: five days
[2] = tested on: rat hepatoma cells; assay: Cholesterol Esterification Assay (esterification of plasma membrane cholesterol); format: cell-based
Excerpt: Table 1. […] Table 1. Effects of synthetic and plant-derived compounds on cholesterol homeostasis. […]

[3] = tested on: Shh-N; assay: Intermediate neural plate explant response to exogenous Shh-N protein; format: cell-based, chick; conditions: for concentration that inhibits the repression of Pax7 expression by 2 nM Shh-N: 20 hours; for doses at which HNF3β and Isl-1 induction are completely blocked / intermediate levels at which induction of HNF3β is blocked while induction of Isl-1 is maintained or expanded: 25 nM Shh-N
[4] = molecular target: T1, Shh (Mus musculus, UniProt Q62226); assay: Shh autoprocessing in stably transfected HK293 cells (immunoblot); format: cell-based; conditions: added during the 24-hour induction period; doses up to 5-fold higher than those required to completely inhibit Shh signaling
T1 construct: expressed in transfected cells; host or cells: HK293 cells, Ecdysone-Inducible Mammalian Expression System (Invitrogen)
Excerpt: To examine potential effects of these compounds on Shh processing we utilized HK293 cells cultured in lipid-depleted serum and carrying a stable integrated construct for expression of Shh under ecdysone-inducible control (47). Shh protein expression in these cells can be induced by addition of muristerone A, an ecdysone analog.
• 1. M. Hammerschmidt, A. Brook, A. P. McMahon, Trends Genet, 13, 14-21 (1997). • 2. C. Chiang, et al., Nature, 383,407-413 (1996). • 3. Y. Tanabe, T. M. Jessell, Science 274, 1115-1123 (1996). • 4. T. P. Yamaguchi, Curr. Opin. Genet. Dev. 7, 513-518 (1997). • 5. N. Shubin, C. Tabin, S. Carroll, Nature 388, 639-648 (1997). • 6. A. E. Oro, et al., Science 276, 817-821 (1997). • 7. M. M. Cohen, K. K. Sulik, J. Craniofac. Genet. Deve. Biol. 12, 196-244 (1992). • 8. E. Belloni, et al., Nature Genet. 14, 353-356 (1996). • 9. E. Roessler, et al., Nature Genet. 14, 357-360 (1996). • 10. J. A. Porter, et al., Nature 374, 363-366 (1995). • 11. J. A. Porter, K. E. Young, P. A. Beacy, Science 274, 255-259 (1996b). • 12. J. J. Lee, et al., Science 266, 1528-1537 (1994). • 13. J. A. Porter, et al., Cell 86, 21-34 (1996a). • 14. C. Roux, Arch. Franc. Pediatr. 21, 451-464 (1964). • 15. C. Roux, C. R. Soc. Biol. 160, 1353-1357 (1966). • 16. D. B. Dehart, L. Lanoue, G. S. Tinit, K. K. Sulik, Am J. Med. Genet. 68, 328-337 (1997). • 17. M. Kraml, J. F. Bagli, D. Dvornik, Biochem. and Biophysical Res. Com. 15, 455-457 (1964). • 18. J. Avigan, D. Steinberg, H. E. Vroman, M. J. Thompson, E. Mosettig, J. Biol. Chem 235, 3123-3126 (1960). • 19. R. B. Clayton, A. N. Nelson, I. D. Frantz Jr., J. Lipid Res. 4, 166-178 (1963). • 20. J. Aufenanger, J. Pill, K. Stegmeier, F. H. Schmidt, Horm. Metabol. Res. 17, 612-613 (1986). • 21. […] G. Popjak, A. Meenean, E. J. Parish, W. D. Nes, J. Biol. Chem 264,6230-6238 (1989). • 23. H. Yoshikawa, Brain Deve. 13, 115-120 (1991). • 24. R. I. Kelley, et al., Am. J. Of Med. Gen. 66, 478-484 (1996). • 25. G. S. Tint, et al., New England Journal of Medicine 330, 107-113 (1994). • 26. T.E. Willnow, et al., Proc. Natl. Acad. Sci USA 93, 8460-8464 (1996). • 27. S. Stefansson, D. A. Chappell, K. M. Argraves, D. K. Strickland, W. S. Argraves, J. Biol. Chem. 270, 19417-19421 (1995). • 28. W. Binns, L. F. James, J. L. Shupe, G. Everett, Am. J. Vet. Res. 24, 1164-1174 (1963). • 29. R. F. Keeler, W. Binns, Teratology 1, 5-10 (1968). • 30. P. A. Beachy, et al., CSH Symp. Quant. Biol. 62, in press (1997). • 31. E. D. Carstea, et al., Science 277, 228-231 (1997). • 32. S. K. Loftus, et al., Science 277, 232-235 […]. • 33. L. V. Goodrich, L. Milenkovic, K. M. Higgins, M. P. Scott, Science 277, 1109-1113 (1997). • 34. H. Kumagai, K. T. Chun, R. D. Simoni, J. Biol. Chem. 270, 19107-19113 (1995). • 35. G. Gil, J. R. Faust, D. J. Chin, J. L. Goldstien, M. S. Brown, Cell 41, 249-258 (1985). • 36. X. Hua, A. Nohturfft, J. L. Goldstein, M. S. Brown, Cell 87, 415-426 (1996). • 37. M. S. Brown, J. L. Goldstein, Cell 89, 331-340 (1997). • 38. M. M. Bryden, C. Perry, R. F. Keeler, Teratology 8, 18-28 (1973). • 39. M. L. Omnell, F. R. P. Sim, R. F. Keeler, L. C. Harne, K. W. Brown, Teratology 42, 105-119 (1990). • 40. Fertile chick eggs (white leghorn) were placed in a humidified incubator at 37.5° C in a rotating tray for 14 hours. […] The window was taped and the eggs incubated for an additional 4 days. The embryos were dissected in phosphate buffered saline (PBS, pH 7.2).

[5] = tested on: endogenous Shh signaling; assay: Midline neural plate/notochord explant assay of endogenous Shh signaling; format: cell-based, chick; conditions: midline explants, two days of culture
[6] = read-out: Percent Inhibition (incorporation of label into cholesteryl ester*) ^3H-Cholesterol
[7] = read-out: Percent Inhibition (incorporation of label into cholesteryl ester*) ^14C-Oleic Acid

T1 sequence (Q62226 25-437): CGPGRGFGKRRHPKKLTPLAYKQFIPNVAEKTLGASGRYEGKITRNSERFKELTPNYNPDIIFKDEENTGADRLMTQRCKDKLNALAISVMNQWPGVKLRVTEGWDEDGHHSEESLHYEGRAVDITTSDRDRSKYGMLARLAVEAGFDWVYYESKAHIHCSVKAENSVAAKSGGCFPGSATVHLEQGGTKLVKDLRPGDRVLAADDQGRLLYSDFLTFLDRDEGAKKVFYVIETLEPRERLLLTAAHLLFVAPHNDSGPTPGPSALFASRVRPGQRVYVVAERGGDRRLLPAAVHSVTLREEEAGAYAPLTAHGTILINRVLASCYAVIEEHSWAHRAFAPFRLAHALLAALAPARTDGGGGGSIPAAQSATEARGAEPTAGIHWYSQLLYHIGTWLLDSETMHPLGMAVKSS

Compound | Percent Sterols: Cholesterol ([1]; 0.25 µM) [%] | Percent Sterols: b. 7 Dehydrodesmosterol ([1]; 0.25 µM) [%] | Percent Sterols: c. Cholesta-7,24-dien-3ß-ol ([1]; 0.25 µM) [%] | Percent Sterols: e. Cholesta-8(14)-en-3ß-ol ([1]; 0.25 µM) [%] | Total Sterols (µg/mg protein) ([1]; 0.25 µM) | Percent Sterols: 2. C28 Sterols ([1]; 0.5 µM) [%] | Percent Sterols: 3. C29 Sterols ([1]; 0.5 µM) [%] | Percent Sterols: Cholesterol ([1]; 0.5 µM) [%] | Percent Sterols: b. 7 Dehydrodesmosterol ([1]; 0.5 µM) [%] | Percent Sterols: c. Cholesta-7,24-dien-3ß-ol ([1]; 0.5 µM) [%] | Percent Sterols: e. Cholesta-8(14)-en-3ß-ol ([1]; 0.5 µM) [%] | Total Sterols (µg/mg protein) ([1]; 0.5 µM) | Percent Sterols: 2. C28 Sterols ([1]; 1.0 µM) [%] | Percent Sterols: 3. C29 Sterols ([1]; 1.0 µM) [%] | Percent Sterols: Cholesterol ([1]; 1.0 µM) [%] | Percent Sterols: b. 7 Dehydrodesmosterol ([1]; 1.0 µM) [%] | Percent Sterols: c. Cholesta-7,24-dien-3ß-ol ([1]; 1.0 µM) [%] | Percent Sterols: e. Cholesta-8(14)-en-3ß-ol ([1]; 1.0 µM) [%] | Total Sterols (µg/mg protein) ([1]; 1.0 µM) | inhibition at 2.5 µM [2, 6] [%] | other results
Clc1ccccc1CNC[C@H]1CC[C@H](CNCc2ccccc2Cl)CC1 [AY9944, AY 9944] | 30 | 3.5 | 1.8 | 9.7 | 7.6 | 1.1 | 3.3 | 33 | 3.0 | 1.9 | 14 | 8.3 | 2.6 | 4.6 | 34 | 1.9 | 1.6 | 20 | 8.3 | 39 | Percent Sterols: f. 7 Dehydrocholesterol ([1]; 0.25 µM): 50%; Percent Sterols: g. Lathosterol ([1]; 0.25 µM): 6.2%; Percent Sterols: f. 7 Dehydrocholesterol ([1]; 0.5 µM): 36%; Percent Sterols: g. Lathosterol ([1]; 0.5 µM): 7.3%; Percent Sterols: f. 7 Dehydrocholesterol ([1]; 1.0 µM): 16%; Percent Sterols: g. Lathosterol ([1]; 1.0 µM): 7.9%; Percent Sterols: h. C27 Sterol 1 (mw 384) ([1]; 1.0 µM): 5.3%; Percent Sterols: i. C27 Sterol 2 (mw 382) ([1]; 1.0 µM): 6.0%; inhibition at 2.5 µM [2, 7]: 20%; inhibition at 5 µM [2, 6]: 56%; inhibition at 5 µM [2, 7]: 35%; inhibition at 10 µM [2, 6]: 68%; inhibition at 10 µM [2, 7]: 51%; concentration that inhibits the repression of Pax7 expression by 2 nM Shh-N [3]: 0.5 µM; doses at which HNF3β and Isl-1 induction are completely blocked [3]: 2.0 µM; intermediate levels at which induction of HNF3β is blocked while induction of Isl-1 is maintained or expanded [3]: 1.0 µM; Shh-Np production and accumulation of unprocessed precursor [4]: did not diminish Shh-Np production nor induce accumulation of unprocessed precursor; Higher doses that fully inhibit HNF3β and Isl-1 induction [5]: 4.0 µM; Intermediate doses that block induction of HNF3β while permitting induction of Isl-1 [5]: 0.5 µM
CCN(CC)CCOc1ccc(C(O)(Cc2ccc(Cl)cc2)c2ccc(C)cc2)cc1 (stereo not drawn) [Triparanol, triparanol] | 56 | 6.0 | 3.1 | 9.1 | 4.1 | 2.6 | 8.1 | 45 | 4.1 | 2.4 | 8.7 | 5.1 | 1.5 | 5.5 | 51 | 2.9 | 2.6 | 7.3 | 3.1 | 49 | Percent Sterols: 2. C28 Sterols ([1]; 0.25 µM): 4.4%; Percent Sterols: 3. C29 Sterols ([1]; 0.25 µM): 7.8%; Percent Sterols: a. Desmosterol ([1]; 0.25 µM): 9.1%; Percent Sterols: d. Zymosterol ([1]; 0.25 µM): 9.3%; Percent Sterols: a. Desmosterol ([1]; 0.5 µM): 8.7%; Percent Sterols: d. Zymosterol ([1]; 0.5 µM): 27%; Percent Sterols: a. Desmosterol ([1]; 1.0 µM): 6.7%; Percent Sterols: d. Zymosterol ([1]; 1.0 µM): 23%; inhibition at 2.5 µM [2, 7]: 54%; inhibition at 5 µM [2, 6]: 57%; inhibition at 5 µM [2, 7]: 65%; inhibition at 10 µM [2, 6]: 79%; inhibition at 10 µM [2, 7]: 81%; concentration that inhibits the repression of Pax7 expression by 2 nM Shh-N [3]: 0.25 µM; doses at which HNF3β and Isl-1 induction are completely blocked [3]: 0.5 µM; intermediate levels at which induction of HNF3β is blocked while induction of Isl-1 is maintained or expanded [3]: 0.25 µM; Shh-Np production and accumulation of unprocessed precursor [4]: did not diminish Shh-Np production nor induce accumulation of unprocessed precursor; Higher doses that fully inhibit HNF3β and Isl-1 induction [5]: 1.0 µM; Intermediate doses that block induction of HNF3β while permitting induction of Isl-1 [5]: 0.25 µM
